Measurements reported in patent US20100248226A1, “METHODS FOR MEASURING CELL RESPONSE TO DNA DAMAGING AGENTS USING PROMYELOCYTIC LEUKEMIA PROTEIN NUCLEAR BODIES” (priority 2006, published 2010).
Read-outs that look alike come from different tables or passages of the source.

How the values were obtained:
[1] = test system: PML NBs in NHDF cell line GM05757; experiment: Kinase inhibitor effect on the PML NB number increase in response to DSBs; type: cell-based, human
Excerpt: (§1) Cell Culture and drug treatments. Cell lines used in this study: NDHFs (GM05757, Coriell Cell Repository); human AT fibroblasts (a.k.a. AT5B1, GM05823; Coriell); human NBS-T fibroblasts (gift of J. Lukas, Danish Cancer Society, Copenhagen, Denmark); human ATLD fibroblasts (gift of Y. Shiloh, Tel Aviv University, Tel Aviv, Israel) Saos-2 (American Tissue Culture Type Collection (ATCC), HCT116 and p53 null HCT116 isogenic cells (gift of Dr. B. Vogelstein, Department of Oncology, John Hopkins University, Baltimore, Md.); ATR-DN and ATR-WT cells (gift of Dr. Paul Nghiem, University of Washington Medical School, Seattle, Wash.); Seckel syndrome cells (GM18366, Coriell); Chk2−/−MEFs and isogenic WT MEFs (gift of Dr. T. Mak, University of Toronto, Toronto); and isogenic and U2OS cells stably expressing GFP-PML IV (gift of J. Taylor, U. Wisconsin, Milwaukee, Wis.). NBST-pBabe and NBST-pBabe-NBS1 cells lines were generated by retroviral transduction of NBS-T fibroblasts using either pBabe-Puro alone or encoding full length human NBS1 (gift of J. Lukas), respectively. […] Alternately, asynchronous cell cultures were exposed to whole-cell ionizing radiation (IR)(dose range, 0-20 Gy) using a ^137Cs irradiator (MDS Nordion, Ottawa, Canada) at 1 Gy/min (on ice, aerobic conditions). […]
(§2) IF detection of proteins, live-cell imaging and fluorescence recovery after photobleaching (FRAP). […]

[2] = test system: NHDFs (GM05757); experiment: FACS cell cycle analysis; type: cell-based, human; conditions: NHDFs by 18 h after VP16 treatment
Procedure: Cells were harvested and pelleted. The pellet was resuspended in 50 μl HBSS with 2% FBS. Cells were fixed with 1 ml ice-cold 80% ethanol for 30 minutes on ice. Cells were pelleted and resuspended in HBSS containing 0.1 mg/ml propidium iodide (Sigma) and 0.6% NP-40 to final concentration of 2×10^6 cells/ml. An equal volume of 2 mg/ml RNase in HBSS was added and incubated at room temperature in the dark for 30 minutes. This solution was then filtered through a 40 μm nylon mesh (BD Biosciences) and keep on ice until analysis. Cells were analyzed on a FACscan flowcytometer (BD Biosciences). Data analysis was performed using FlowJo 6.0 (Tree Star).

[3] = test system: PML NBs in NHDFs (GM05757); experiment: Correlative LM/ESI ultrastructure of PML NBs; type: cell-based, human; conditions: 20 μM VP16 for 30 min, NHDF
Procedure: Correlative Microscopy and Electron Spectroscopic Imaging—Samples were prepared and sectioned for correlative microscopy and electron spectroscopic imaging (ESI) as previously described (Eskiw et al., 2003; Dellaire et al., 2004). Nitrogen and phosphorus maps were collected using an FEI Technai 20 transmission electron microscope fitted with an electron imaging spectrometer (Gatan). Immuno-gold labeling was accomplished using a secondary antibody conjugated to Ultra-small nanogold (donkey anti-rabbit, EMS, Cat. 25100).

[4] = test system: NHDFs; experiment: BrdU incorporation (DNA synthesis) after VP16, NHDF; type: cell-based, human; conditions: NHDFs treated with CHX, 18 h post-VP16 treatment
Procedure: Cells were prepared for immunolabelling as described (Eskiw et al., 2003). To label with BrdU, cells were pulsed with 20 μM BrdU for 30 minutes, fixed in methanol for 30 minutes at −20° C. The methanol was removed and 4N HCl was added to the cells for 2 minutes at room temperature (RT). Cells were washed 3× with PBS at RT. Primary antibodies used were: mouse anti-PML, clone 5E10 (1:10)(a gift from R. van Driel, University of Amsterdam, The Netherlands), rabbit anti-PML (1:1000)(Chemicon, AB1370); rabbit anti-Sp100 (1:500)(Chemicon, Ab1380); mouse anti-RPA (1:200)(Calbiochem, RPA34-20); mouse anti-phospho-Histone H3 (ser10) (1:500)(Upstate, MC463); rabbit anti-Cyclin A (1:200)(Santa Cruz, sc-751); mouse anti-SUMO1 (1:20)(Zymed, GMP-1); mouse anti-y-H2AX (1:500)(Upstate, JBW301); mouse anti-BrdU (1:10)(BD Biosciences, clone B44). Secondary antibodies used were donkey anti-mouse or rabbit Cy3 and Cy5 (Jackson Laboratories). […] For fluorescence microscopy, coverslips were mounted on glass slides using 90% glycerol/PBS containing 1 mg/ml paraphenlenediamine and 1 μg/ml 4′,6-Diamidino-2-phenylindole (DAPI). Images were collected on a Leica Microsystems DMRA2 upright microscope equipped with a Hamamatsu ORCA-ER camera using the 63×1.32 NA oil-immersion objective. […] OpenLab 3.5.1 (Improvision) software was used to collect images, and the images were processed with Photoshop 7.0 (Adobe). […]

[5] = test system: PML NBs in normal human diploid fibroblast (NHDF) cell line GM05757; type: cell-based
Excerpt: as §1, §2

[6] = test system: PML protein in NHDFs; type: cell-based, human; conditions: CHX 30 min prior and maintained
Excerpt: Cell Culture and drug treatments. Cell lines used in this study: NDHFs (GM05757, Coriell Cell Repository); human AT fibroblasts (a.k.a. AT5B1, GM05823; Coriell); human NBS-T fibroblasts (gift of J. Lukas, Danish Cancer Society, Copenhagen, Denmark); human ATLD fibroblasts (gift of Y. Shiloh, Tel Aviv University, Tel Aviv, Israel) Saos-2 (American Tissue Culture Type Collection (ATCC), HCT116 and p53 null HCT116 isogenic cells (gift of Dr. B. Vogelstein, Department of Oncology, John Hopkins University, Baltimore, Md.); ATR-DN and ATR-WT cells (gift of Dr. Paul Nghiem, University of Washington Medical School, Seattle, Wash.); Seckel syndrome cells (GM18366, Coriell); Chk2−/−MEFs and isogenic WT MEFs (gift of Dr. T. Mak, University of Toronto, Toronto); and isogenic and U2OS cells stably expressing GFP-PML IV (gift of J. Taylor, U. Wisconsin, Milwaukee, Wis.). NBST-pBabe and NBST-pBabe-NBS1 cells lines were generated by retroviral transduction of NBS-T fibroblasts using either pBabe-Puro alone or encoding full length human NBS1 (gift of J. Lukas), respectively. […] Alternately, asynchronous cell cultures were exposed to whole-cell ionizing radiation (IR)(dose range, 0-20 Gy) using a ^137Cs irradiator (MDS Nordion, Ottawa, Canada) at 1 Gy/min (on ice, aerobic conditions). […] Cells were then maintained in growth medium containing kinase inhibitors for the indicated time.

SMILES: NC(=O)c1ccc2nc(-c3ccc(Oc4ccc(Cl)cc4)cc3)[nH]c2c1 [Chk2 kinase inhibitor II]
- effect on PML NB number at 3 h following VP16 treatment ([1]; 10 μM Chk2 inhibitor II or 20 μM wortmannin pre-treatment, versus VP16 without inhibitor): significantly reduce
- effect on the initial increase in PML NBs in response to VP16 ([1]; 10 μM inhibitor pre-treatment, 30 min time point): did not affect

SMILES: COc1cc([C@@H]2c3cc4c(cc3[C@@H](O[C@@H]3O[C@@H]5CO[C@@H](C)O[C@H]5[C@H](O)[C@H]3O)[C@H]3COC(=O)[C@H]23)OCO4)cc(OC)c1O [VP16, etoposide]
- cell cycle distribution [2]: marked accumulation in G1 and G2 phase
- PML NB ultrastructure (symmetry, chromatin contacts) [3]: lose their radial symmetry and make fewer contacts with the surrounding chromatin fibres

SMILES: C[C@@H]1C[C@@H]([C@H](O)CC2CC(=O)NC(=O)C2)C(=O)[C@@H](C)C1 [CHX, cycloheximide]
- BrdU incorporation [4]: no BrdU incorporation
- PML NB number initially, compared to untreated cells ([5]; CHX-treated NHDFs, VP16 treatment): higher number of PML NBs initially
- effect on DNA damage-dependent increase in PML protein levels ([6]; 4 h after VP16): little effect
- effect on DNA damage-dependent increase in PML protein levels ([6]; 12 h after VP16): inhibited

SMILES: COc1cccc2c1C(=O)c1c(O)c3c(c(O)c1C2=O)C[C@@](O)(C(=O)CO)C[C@@H]3O[C@H]1C[C@H](N)[C@H](O)[C@H](C)O1 [doxorubicin]
- time after treatment at which γ-H2AX signal and PML NB number peaked ([5]; 20 μM VP16 or 1.5 μM doxorubicin for 30 min, NHDF GM05757): 3 h
